Experimental data from patent US9439430B2, “Method of controlling resistant harmful plants” (priority 2012, dated 2016).

Legend:
BRODI = experiment: Greenhouse test, post-emergence (PO) application, foliar effect; assay type: in vivo, Bromus diformis; conditions: (A) 50, (B) 20, mixture 50 + 20 g of AS/ha, 3 weeks after application
Description: (§1) The 1:1 mixture of the two soil types was used specifically for cultivating small-seeded dicotyledonous weed since the standard field soil on its own tends to silt up, which may have an adverse effect on the emergence of small-seeded weeds. The resistances mentioned in the tables were confirmed beforehand in standard monitoring experiments. Nevertheless, the origins examined may have additional, hitherto unconfirmed resistances to various mechanisms of action.
(§2) The pots were then cultivated in a greenhouse (12-16 h light, temperature day 20-22° C., night 15-18° C.) until the time of application. The pots were treated at various BBCH stages of the seeds/plants on a laboratory track sprayer with spray liquors comprising the compositions according to the invention, mixtures of the prior art or the individual components. Application of the active compounds or active compound combinations and wetting agents formulated as WG, WP, EC or otherwise was carried out at the appropriate growth stages of the plants. The amount of water used for spray application was 100-600 l/ha. After the treatment, the plants were returned to the greenhouses and fertilized and watered as required. The pots were cultivated in a greenhouse (12-16 h light, temperature day 20-22° C., night 15-18° C.).
(§3) 3 weeks after the application, the foliar effect was evaluated on a scale of 0-100%:
(§4) 0%=no noticeable effect compared to untreated plants
(§5) 100%=full effect compared to untreated plants
(§6) The following abbreviations were used: • BBCH the BBCH code provides information about the morphological development stage of a plant. Officially, the abbreviation denotes the Biologische Bundesanstalt, Bundessortenamt and CHemische Industrie [Federal Biological Institute for Agriculture and Forestry, Federal Office for Crop Plant Varieties, Chemical Industry]. The range of BBCH 00-10 denotes the germination stages of the seeds until surface penetration. The range of BBCH 11-25 denotes the leaf development stages until stocking (corresponds to the number of tillers or side-shoots). • PE pre-emergence soil application; BBCH of the seeds/plants 00-10 • PO post-emergence application on the green parts of the plants; BBCH of the plants 11-25 • IU soil loamy silt—standard field soil • l/ha liters per hectare • S sensitive—the weed populations are sensitive to the active compounds tested • TSR target-site resistance. The weed populations comprise biotypes having a site-of-action-specific resistance, i.e. the binding site at the site of action is modified as a result of natural mutations in the gene sequence so that the active compounds are no longer able to bind, or bind in an unsatisfactory manner, and are therefore no longer able to act. • NTR non-target-site herbicide resistance; this is differentiated, inter alia, into EMR (Enhanced Metabolic Resistance) (the weed populations comprise biotypes having metabolic resistance, i.e. the plants are capable of metabolizing the active compounds more quickly via enzyme complexes, i.e. the active compounds are degraded more quickly in the plant), into reduced penetration into the plant, reduced translocation in the plant, accelerated excretion. […]

CHEAL = experiment: Greenhouse test, pre-emergence (PE) soil application; assay type: in vivo, Chenopodium album; parameters: key: % effect: 0 = no effect, 100 = full effect vs untreated
Description: as §1, §2, §3, §4, §5, §6

BIDSU = experiment: as above; assay type: in vivo, Bidens subalternans
Description: as §1, §2, §3, §4, §5, §6

AMATA [1] = experiment: Greenhouse test, post-emergence (PO) application, foliar effect; assay type: in vivo, Amaranthus rudis; conditions: (A) 50, (B) 20, mixture 50 + 20 g of AS/ha, 3 weeks after application
Description: as §1, §2, §3, §4, §5, §6

LOLSS [2] = experiment: Greenhouse test, pre-emergence (PE) soil application; assay type: in vivo, Lolium spp.; parameters: key: % effect: 0 = no effect, 100 = full effect vs untreated plants
Description: as §1, §2, §3, §4, §5, §6

LOLSS [3] = experiment: Greenhouse test, post-emergence (PO) application, foliar effect; assay type: in vivo, Lolium spp.; conditions: (A) 50, (B) 20, mixture 50 + 20 g of AS/ha, 3 weeks after application
Description: as §1, §2, §3, §4, §5, §6

AMAPA = experiment: as above; assay type: in vivo, Amaranthus palmeri; conditions: AMAPA resistant - group B (TSR), C1 (TSR) and G (NTR), (A) 50, (B) 20, mixture 50 + 20 g of AS/ha, 3 weeks after application
Description: as §1, §2, §3, §4, §5, §6

APESV = experiment: as above; assay type: in vivo, Apera spica-venti; conditions: (A) 50, (B) 20, mixture 50 + 20 g of AS/ha, 3 weeks after application
Description: as §1, §2, §3, §4, §5, §6

KCHSC [4] = experiment: as above; assay type: in vivo, Kochia scoparia; conditions: (A) 50, (B) 20, mixture 50 + 20 g of AS/ha, 3 weeks after application
Description: as §1, §2, §3, §4, §5, §6

EPHHL = experiment: Greenhouse test, pre-emergence (PE) soil application; assay type: in vivo, Euphorbia heterophylla; parameters: key: % effect: 0 = no effect, 100 = full effect vs untreated
Description: as §1, §2, §3, §4, §5, §6

KCHSC [5] = experiment: as above; assay type: in vivo, Kochia scoparia; parameters: key: % effect: 0 = no effect, 100 = full effect vs untreated
Description: as §1, §2, §3, §4, §5, §6

AMATA [6] = experiment: as above; assay type: in vivo, Amaranthus rudis; parameters: key: % effect: 0 = no effect, 100 = full effect vs untreated
Description: as §1, §2, §3, §4, §5, §6

[7] = test system: TTTTT (all resistant and sensitive biotypes); experiment: Greenhouse test, PO application, mean over all resistant and sensitive biotypes; assay type: in vivo; conditions: (A) 50, (B) 20, mixture 50 + 20 g of AS/ha; for TTTTT resistant mean (effect): mean of resistant biotypes (n = 17 or n = 15); for TTTTT sensitive mean (effect): mean of sensitive biotypes (n = 11)
Description: as §1, §2, §3, §4, §5, §6

ERIBO [8] = experiment: Greenhouse test, post-emergence (PO) application, foliar effect; assay type: in vivo, Erigeron bonariensis; conditions: (A) 50, (B) 20, mixture 50 + 20 g of AS/ha, 3 weeks after application
Description: as §1, §2, §3, §4, §5, §6

ERIBO [9] = experiment: Greenhouse test, pre-emergence (PE) soil application; assay type: in vivo, Erigeron bonariensis; parameters: key: % effect: 0 = no effect, 100 = full effect vs untreated
Description: as §1, §2, §3, §4, §5, §6

[10] = BRODI resistant - group A (TSR), B (NTR) and G (NTR)
[11] = group (B) compound alone, 20 g of AS/ha
[12] = AMATA resistant - group B (TSR), C1 (TSR)
[13] = LOLSS resistant - group G (NTR)
[14] = LOLSS resistant group A (TSR, NTR), B (NTR) and C2 (NA)
[15] = LOLSS resistant group A (TSR, NTR), B (TSR, NTR) and C2 (NA)
[16] = APESV resistant - group B (TSR, NTR) and K1/3 (NA)
[17] = KCHSC resistant - group B (TSR)
[18] = ERIBO resistant - group B (NA) and G (NTR)

SMILES | foliar effect (BRODI; [10]) | foliar effect (BRODI; BRODI sensitive) | foliar effect (AMATA [1]; [12]) | foliar effect (AMATA [1]; AMATA sensitive) | foliar effect (LOLSS [3]; [13]) | foliar effect (LOLSS [3]; [14]) | foliar effect (LOLSS [3]; [15]) | foliar effect (LOLSS [3]; LOLSS sensitive) | foliar effect (AMAPA) | foliar effect (APESV; [16]) | foliar effect (APESV; APESV sensitive) | foliar effect (KCHSC [4]; [17]) | foliar effect (KCHSC [4]; KCHSC sensitive) | TTTTT resistant mean (effect) [7] | TTTTT sensitive mean (effect) [7] | foliar effect (ERIBO [8]; [18]) | foliar effect (ERIBO [8]; ERIBO sensitive) | other results
COC(=O)c1csc(C)c1S(=O)(=O)NC(=O)n1nc(OC)n(C)c1=O [(B5), thiencarbazone-methyl] | 50% | 95% | 40% | 30% | 40% | 50% | 0% | 85% | 0% | 0% | 100% | 0% | 90% | 25% | 76% | 60% | 70% | effect on CHEAL resistant - group B (TSR), C1 (NA) and G (NTR) (CHEAL; [11]): 60; effect on CHEAL sensitive (CHEAL; [11]): 90; effect on BIDSU sensitive (BIDSU; [11]): 75; effect on LOLSS resistant - group G (NTR) (LOLSS [2]; [11]): 70; effect on LOLSS resistant group A (TSR, NTR), B (NTR) and C2 (NA) (LOLSS [2]; [11]): 80; effect on LOLSS resistant group A (TSR, NTR), B (TSR, NTR) and C2 (NA) (LOLSS [2]; [11]): 20; effect on LOLSS sensitive (LOLSS [2]; [11]): 75; effect on EPHHL resistant - group B (TSR) (EPHHL; [11]): 0; effect on EPHHL resistant - group B (TSR) and G (NTR) (EPHHL; [11]): 0; effect on EPHHL sensitive (EPHHL; [11]): 30; effect on KCHSC resistant - group B (TSR) (KCHSC [5]; [11]): 0; effect on KCHSC sensitive (KCHSC [5]; [11]): 85; effect on AMATA resistant - group B (TSR), C1 (TSR) (AMATA [6]; [11]): 40; effect on AMATA sensitive (AMATA [6]; [11]): 60; effect on ERIBO resistant - group B (NA) and G (NTR) (ERIBO [9]; [11]): 0; effect on ERIBO sensitive (ERIBO [9]; [11]): 60
Cc1ccc2c(c1)[C@H](Nc1nc(N)nc(C(C)F)n1)[C@@H](C)C2 (stereo partly drawn) [(A), indaziflam] | 65% | 70% | 40% | 50% | 65% | 60% | 60% | 75% | 50% | 60% | 65% | 30% | 30% | 53% | 58% | 50% | 50% | effect on CHEAL resistant - group B (TSR), C1 (NA) and G (NTR) (CHEAL; (A) alone, 12.5 g of AS/ha): 65; effect on CHEAL sensitive (CHEAL; (A) alone, 12.5 g of AS/ha): 70; effect on BIDSU sensitive (BIDSU; (A) alone, 12.5 g of AS/ha): 50; effect on LOLSS resistant - group G (NTR) (LOLSS [2]; (A) alone, 12.5 g of AS/ha): 75; effect on LOLSS resistant group A (TSR, NTR), B (NTR) and C2 (NA) (LOLSS [2]; (A) alone, 12.5 g of AS/ha): 50; effect on LOLSS resistant group A (TSR, NTR), B (TSR, NTR) and C2 (NA) (LOLSS [2]; (A) alone, 12.5 g of AS/ha): 50; effect on LOLSS sensitive (LOLSS [2]; (A) alone, 12.5 g of AS/ha): 80; effect on EPHHL resistant - group B (TSR) (EPHHL; (A) alone, 12.5 g of AS/ha): 0; effect on EPHHL resistant - group B (TSR) and G (NTR) (EPHHL; (A) alone, 12.5 g of AS/ha): 0; effect on EPHHL sensitive (EPHHL; (A) alone, 12.5 g of AS/ha): 50; effect on KCHSC resistant - group B (TSR) (KCHSC [5]; (A) alone, 12.5 g of AS/ha): 40; effect on KCHSC sensitive (KCHSC [5]; (A) alone, 12.5 g of AS/ha): 40; effect on AMATA resistant - group B (TSR), C1 (TSR) (AMATA [6]; (A) alone, 12.5 g of AS/ha): 70; effect on AMATA sensitive (AMATA [6]; (A) alone, 12.5 g of AS/ha): 70; effect on ERIBO resistant - group B (NA) and G (NTR) (ERIBO [9]; (A) alone, 12.5 g of AS/ha): 60; effect on ERIBO sensitive (ERIBO [9]; (A) alone, 12.5 g of AS/ha): 70
